For 2 compounds, INH, IC50 and EC20 results are on record in ChEMBL document CHEMBL2331425, “Triazolo and imidazo dihydropyrazolopyrimidine potassium channel antagonists” (Bioorg Med Chem Lett, 2013).

SMILES strings stand for the structures.

Series [1] deals with Voltage-gated inwardly rectifying potassium channel KCNH2 (Homo sapiens, UniProt Q12809). In words: Inhibition of human ERG current in HEK293 cells by patch clamp method. It counts as cell-based.
Series [2] addresses Potassium voltage-gated channel subfamily A member 5 (Homo sapiens, UniProt P22460). In words: Antagonist activity at human Kv1.5 expressed in mouse L929 cells assessed as inhibition of delayed rectifier repolarization current by patch clamp assay. Type of series: cell-based.
The target of a further series is T1, Cytochrome P450 1A2 (Homo sapiens, UniProt P05177).
T1 sequence (P05177 whole entry): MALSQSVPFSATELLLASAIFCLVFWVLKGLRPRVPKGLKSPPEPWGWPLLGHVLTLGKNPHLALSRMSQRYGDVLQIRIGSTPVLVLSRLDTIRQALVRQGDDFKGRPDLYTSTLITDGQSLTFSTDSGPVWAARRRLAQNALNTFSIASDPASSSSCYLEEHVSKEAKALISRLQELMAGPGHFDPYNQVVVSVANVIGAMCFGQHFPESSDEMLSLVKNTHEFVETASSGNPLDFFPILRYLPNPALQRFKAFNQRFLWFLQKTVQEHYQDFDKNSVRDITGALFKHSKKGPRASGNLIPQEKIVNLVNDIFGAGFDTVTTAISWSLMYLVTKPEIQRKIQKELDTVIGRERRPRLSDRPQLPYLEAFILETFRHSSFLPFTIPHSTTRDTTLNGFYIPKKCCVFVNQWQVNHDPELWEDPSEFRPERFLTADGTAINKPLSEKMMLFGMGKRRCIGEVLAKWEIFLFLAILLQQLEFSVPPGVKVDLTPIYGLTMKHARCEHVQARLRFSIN
In words: Inhibition of CYP1A2 (unknown origin). It counts as ADME.

The next series deals with Cytochrome P450 2C19 (Homo sapiens, UniProt P33261). As to the kind of experiment: Inhibition of CYP2C19 (unknown origin). It counts as ADME.
Sequence of Cytochrome P450 2C19 (P33261 whole entry): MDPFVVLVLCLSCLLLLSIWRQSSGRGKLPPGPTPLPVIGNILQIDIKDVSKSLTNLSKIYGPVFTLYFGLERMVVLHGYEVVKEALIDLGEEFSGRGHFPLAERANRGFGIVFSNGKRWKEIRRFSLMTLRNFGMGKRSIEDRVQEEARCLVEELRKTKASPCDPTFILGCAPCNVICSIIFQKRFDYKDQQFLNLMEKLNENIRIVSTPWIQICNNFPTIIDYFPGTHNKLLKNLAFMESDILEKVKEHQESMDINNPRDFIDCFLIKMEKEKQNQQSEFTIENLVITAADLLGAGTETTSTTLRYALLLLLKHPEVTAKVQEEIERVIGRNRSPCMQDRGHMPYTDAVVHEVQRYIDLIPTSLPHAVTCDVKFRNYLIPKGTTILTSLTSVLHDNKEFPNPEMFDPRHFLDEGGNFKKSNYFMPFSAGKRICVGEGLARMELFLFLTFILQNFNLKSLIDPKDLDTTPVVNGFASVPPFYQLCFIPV
Another series addresses Cytochrome P450 2D6 (Homo sapiens, UniProt P10635). As to the kind of experiment: Inhibition of CYP2D6 (unknown origin). Type of series: ADME.
The next series deals with Cytochrome P450 2C9 (Homo sapiens, UniProt P11712). As to the kind of experiment: Inhibition of CYP2C9 (unknown origin). It counts as ADME.
Sequence of Cytochrome P450 2C9 (P11712 whole entry): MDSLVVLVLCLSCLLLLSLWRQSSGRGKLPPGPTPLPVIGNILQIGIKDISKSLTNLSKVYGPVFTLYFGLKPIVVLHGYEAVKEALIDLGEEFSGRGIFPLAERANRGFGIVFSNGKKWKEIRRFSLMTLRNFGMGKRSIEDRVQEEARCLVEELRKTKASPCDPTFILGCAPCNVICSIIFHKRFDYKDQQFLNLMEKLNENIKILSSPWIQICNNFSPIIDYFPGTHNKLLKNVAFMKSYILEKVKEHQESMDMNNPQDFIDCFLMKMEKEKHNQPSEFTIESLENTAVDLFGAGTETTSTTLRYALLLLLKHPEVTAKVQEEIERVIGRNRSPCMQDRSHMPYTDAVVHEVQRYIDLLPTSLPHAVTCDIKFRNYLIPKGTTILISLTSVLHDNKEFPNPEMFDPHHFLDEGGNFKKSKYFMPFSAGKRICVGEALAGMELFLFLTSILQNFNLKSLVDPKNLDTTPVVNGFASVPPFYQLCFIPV
Series [3] deals with T2, Nuclear receptor subfamily 1 group I member 2 (Homo sapiens, UniProt O75469).
T2 sequence (O75469 whole entry): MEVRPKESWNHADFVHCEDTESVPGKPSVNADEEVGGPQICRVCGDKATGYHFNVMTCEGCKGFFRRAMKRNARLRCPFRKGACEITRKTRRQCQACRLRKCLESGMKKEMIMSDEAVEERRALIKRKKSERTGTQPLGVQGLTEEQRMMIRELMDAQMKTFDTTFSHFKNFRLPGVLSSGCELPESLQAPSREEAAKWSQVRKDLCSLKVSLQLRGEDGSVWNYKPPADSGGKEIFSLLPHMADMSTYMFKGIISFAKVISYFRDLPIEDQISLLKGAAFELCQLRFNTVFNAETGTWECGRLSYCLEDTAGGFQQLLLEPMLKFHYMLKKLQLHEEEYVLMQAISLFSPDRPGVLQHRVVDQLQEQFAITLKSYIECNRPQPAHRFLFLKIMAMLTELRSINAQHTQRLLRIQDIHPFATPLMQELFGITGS
As to the kind of experiment: Transactivation of PXR (unknown origin).

The next series addresses Cytochrome P450 3A4 (Homo sapiens, UniProt P08684). In words: Inhibition of CYP3A4 (unknown origin). It counts as ADME.

Sequence of Potassium voltage-gated channel subfamily A member 5 (P22460 whole entry): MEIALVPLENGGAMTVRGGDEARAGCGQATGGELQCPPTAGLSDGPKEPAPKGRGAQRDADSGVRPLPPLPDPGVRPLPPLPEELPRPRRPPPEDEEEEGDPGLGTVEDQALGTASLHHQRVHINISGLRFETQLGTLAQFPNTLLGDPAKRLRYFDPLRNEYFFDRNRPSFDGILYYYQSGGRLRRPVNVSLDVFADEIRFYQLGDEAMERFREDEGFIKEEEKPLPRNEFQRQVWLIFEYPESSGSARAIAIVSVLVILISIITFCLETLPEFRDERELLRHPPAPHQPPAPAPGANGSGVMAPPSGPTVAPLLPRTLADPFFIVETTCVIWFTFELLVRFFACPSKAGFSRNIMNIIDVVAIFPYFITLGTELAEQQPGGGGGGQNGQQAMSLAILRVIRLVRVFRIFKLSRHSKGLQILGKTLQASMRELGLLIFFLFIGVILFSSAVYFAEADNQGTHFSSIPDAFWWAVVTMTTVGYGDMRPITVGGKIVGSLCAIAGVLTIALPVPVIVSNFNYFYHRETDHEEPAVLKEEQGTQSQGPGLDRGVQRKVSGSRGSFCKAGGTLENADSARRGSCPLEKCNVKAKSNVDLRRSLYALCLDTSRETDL
Sequence of Cytochrome P450 2D6 (P10635 whole entry): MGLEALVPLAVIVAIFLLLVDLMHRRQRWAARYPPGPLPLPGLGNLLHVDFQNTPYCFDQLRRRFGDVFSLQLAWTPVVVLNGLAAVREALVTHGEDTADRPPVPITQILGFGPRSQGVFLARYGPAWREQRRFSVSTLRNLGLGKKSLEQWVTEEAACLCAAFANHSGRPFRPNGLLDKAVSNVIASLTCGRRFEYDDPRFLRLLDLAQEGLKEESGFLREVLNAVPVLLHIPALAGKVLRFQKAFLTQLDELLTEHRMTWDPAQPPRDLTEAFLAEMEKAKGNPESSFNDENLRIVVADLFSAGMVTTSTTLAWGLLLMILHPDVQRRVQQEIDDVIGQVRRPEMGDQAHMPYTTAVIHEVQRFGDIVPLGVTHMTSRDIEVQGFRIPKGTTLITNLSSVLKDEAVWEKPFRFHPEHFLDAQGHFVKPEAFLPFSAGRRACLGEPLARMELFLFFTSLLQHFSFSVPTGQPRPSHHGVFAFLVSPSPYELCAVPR
Sequence of Voltage-gated inwardly rectifying potassium channel KCNH2 (Q12809 whole entry): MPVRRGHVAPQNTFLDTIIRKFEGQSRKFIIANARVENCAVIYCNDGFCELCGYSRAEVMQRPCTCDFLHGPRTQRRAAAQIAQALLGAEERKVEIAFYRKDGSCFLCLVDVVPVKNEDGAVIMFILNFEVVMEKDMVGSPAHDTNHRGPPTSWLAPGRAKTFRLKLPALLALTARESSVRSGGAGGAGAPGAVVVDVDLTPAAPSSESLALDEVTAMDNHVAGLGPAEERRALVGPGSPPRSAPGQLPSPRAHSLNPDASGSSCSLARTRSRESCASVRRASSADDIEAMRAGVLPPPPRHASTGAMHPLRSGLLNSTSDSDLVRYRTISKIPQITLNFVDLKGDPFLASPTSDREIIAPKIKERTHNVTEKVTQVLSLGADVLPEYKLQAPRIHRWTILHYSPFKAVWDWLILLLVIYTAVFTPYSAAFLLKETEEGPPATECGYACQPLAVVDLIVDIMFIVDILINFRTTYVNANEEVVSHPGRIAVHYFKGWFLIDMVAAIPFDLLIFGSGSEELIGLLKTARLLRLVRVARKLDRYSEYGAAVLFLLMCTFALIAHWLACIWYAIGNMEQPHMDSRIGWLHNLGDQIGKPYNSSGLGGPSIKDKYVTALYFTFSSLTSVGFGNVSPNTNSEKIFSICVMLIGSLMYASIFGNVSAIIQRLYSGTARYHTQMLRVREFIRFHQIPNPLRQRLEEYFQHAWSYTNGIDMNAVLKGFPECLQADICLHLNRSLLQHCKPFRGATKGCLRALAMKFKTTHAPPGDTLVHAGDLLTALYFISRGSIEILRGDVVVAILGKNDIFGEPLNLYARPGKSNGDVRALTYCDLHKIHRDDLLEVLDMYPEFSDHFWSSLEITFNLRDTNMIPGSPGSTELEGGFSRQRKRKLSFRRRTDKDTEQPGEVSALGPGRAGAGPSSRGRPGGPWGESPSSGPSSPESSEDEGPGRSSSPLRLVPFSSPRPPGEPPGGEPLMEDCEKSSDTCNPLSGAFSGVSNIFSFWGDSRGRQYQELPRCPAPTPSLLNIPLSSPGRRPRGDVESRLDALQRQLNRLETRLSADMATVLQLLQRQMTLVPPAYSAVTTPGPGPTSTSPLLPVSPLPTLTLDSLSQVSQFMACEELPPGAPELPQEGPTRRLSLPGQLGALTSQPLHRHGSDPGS
Sequence of Cytochrome P450 3A4 (P08684 whole entry): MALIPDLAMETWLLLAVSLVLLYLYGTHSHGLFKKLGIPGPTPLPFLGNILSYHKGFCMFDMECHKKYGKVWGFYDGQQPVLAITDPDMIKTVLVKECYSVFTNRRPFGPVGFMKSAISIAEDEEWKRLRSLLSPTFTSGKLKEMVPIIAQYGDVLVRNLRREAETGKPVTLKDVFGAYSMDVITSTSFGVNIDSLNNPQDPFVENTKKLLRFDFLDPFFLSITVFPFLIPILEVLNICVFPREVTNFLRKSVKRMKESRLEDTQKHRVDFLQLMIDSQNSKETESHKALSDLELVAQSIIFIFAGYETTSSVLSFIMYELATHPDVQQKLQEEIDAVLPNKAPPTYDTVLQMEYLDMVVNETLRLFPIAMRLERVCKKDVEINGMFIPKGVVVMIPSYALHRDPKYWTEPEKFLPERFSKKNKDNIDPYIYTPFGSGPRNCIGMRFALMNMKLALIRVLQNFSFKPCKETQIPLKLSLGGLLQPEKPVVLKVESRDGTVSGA

`CC1=C(c2ncnn2C2CCCC2)[C@@H](c2ccc(Cl)c(Cl)c2)n2nccc2N1` registered an INH in series [1] of 6 µM. In addition, the IC50 in series [2] is 37 nM.

Turning to `CC1=C(c2ncnn2C2CCC(C(F)(F)F)CC2)[C@@H](c2ccc(Cl)c(Cl)c2)n2nc(C(F)(F)F)cc2N1` (single isomer, unassigned; isomer 2), the INH on Cytochrome P450 1A2 is 40 µM; at Cytochrome P450 2C19 it was 7 µM; at Cytochrome P450 2D6, 27 µM; at Cytochrome P450 2C9, 8 µM; on Cytochrome P450 3A4 it was 25 µM. In series [2], the IC50 worked out at 607 nM. The compound further came in with an EC20 in series [3] of 3600 nM.
